Results from PMC8126654, “Novel Pan-Pim Kinase Inhibitors With Imidazopyridazine and Thiazolidinedione Structure Exert Potent Antitumor Activities” (Frontiers in Pharmacology, 2021).

Assays:
FLT3 = target: T1, FLT3 (Homo sapiens, UniProt P36888); assay: FLT3 kinase activity assay (FRET-based Z'-LYTE); format: biochemical; conditions: ATP 500 µM; read-out: IC50 against FLT3 kinase
T1 construct: purchased Life Technologies; Thermo Fisher Scientific Inc
T1 sequence (P36888 27-993): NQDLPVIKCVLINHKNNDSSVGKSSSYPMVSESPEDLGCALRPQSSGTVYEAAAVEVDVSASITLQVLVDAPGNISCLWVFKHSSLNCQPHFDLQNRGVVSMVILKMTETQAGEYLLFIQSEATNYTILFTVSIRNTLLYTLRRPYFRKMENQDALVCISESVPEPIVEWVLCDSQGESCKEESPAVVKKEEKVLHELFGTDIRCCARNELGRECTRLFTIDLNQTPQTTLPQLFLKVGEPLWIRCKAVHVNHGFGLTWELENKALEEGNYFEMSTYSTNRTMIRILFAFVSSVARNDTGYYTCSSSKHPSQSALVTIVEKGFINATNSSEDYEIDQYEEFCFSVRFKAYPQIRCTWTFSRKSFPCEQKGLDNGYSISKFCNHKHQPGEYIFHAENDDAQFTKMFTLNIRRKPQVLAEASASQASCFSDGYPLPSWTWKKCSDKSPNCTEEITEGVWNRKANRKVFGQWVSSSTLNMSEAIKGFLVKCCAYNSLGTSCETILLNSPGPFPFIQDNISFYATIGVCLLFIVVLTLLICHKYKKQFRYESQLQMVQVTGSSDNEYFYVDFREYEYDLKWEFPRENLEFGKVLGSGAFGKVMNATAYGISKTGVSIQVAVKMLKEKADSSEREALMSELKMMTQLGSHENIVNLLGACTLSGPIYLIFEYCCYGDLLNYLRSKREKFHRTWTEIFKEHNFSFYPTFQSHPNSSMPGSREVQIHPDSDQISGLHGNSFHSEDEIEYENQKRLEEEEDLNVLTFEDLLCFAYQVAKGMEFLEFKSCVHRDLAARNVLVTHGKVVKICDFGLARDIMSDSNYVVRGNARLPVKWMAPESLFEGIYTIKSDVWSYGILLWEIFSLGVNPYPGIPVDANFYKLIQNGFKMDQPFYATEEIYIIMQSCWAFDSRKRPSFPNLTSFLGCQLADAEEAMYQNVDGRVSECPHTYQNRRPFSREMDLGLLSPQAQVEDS
Description: The inhibition ratios of test compounds for Pim-1, 2 (Life Technologies; Thermo Fisher Scientific Inc., MA, United States), 3 (Merck KgaA), and FLT3 (Life Technologies; Thermo Fisher Scientific Inc., MA, United States) were determined using a modified FRET-based Z′-LYTE kinase assay kit (Invitrogen; Thermo Fisher Scientific Inc.). The Ser/Thr 7 peptide and Tyr-2 peptide were used as substrates for Pim kinases and FLT3, respectively. The reactions were carried out in a 384-well plate with a 10 µL reaction volume per well containing 1 µM substrates in 50 mM HEPES buffer with pH 7.5, 0.01% BRIJ-35, 10 mM MgCl2, 1 mM EGTA, and an appropriate amount of kinases (Pim-1: 0.03 μg/ml, Pim-2: 0.2 μg/ml, Pim-3: 0.2 μg/ml, FLT3: 0.1 μg/ml) with test compounds. The final reaction concentrations of ATP were 400, 5, 100, and 500 µM for Pim-1, 2, 3, and FLT3 respectively. After 1 h incubation, reactions were developed and terminated, and fluorescence ratios were calculated following the manufacturer’s protocol.

cancer cell lines = assay: Cytotoxicity assay for cell survival (cancer cell proliferation); format: cell-based; conditions: 96 hours; read-out: IC50 for proliferation of a broad spectrum of cancer cell lines (range)
Excerpt: We obtained colon cancer HCT116 and HT-29 cells, prostate cancer PC-3, DU145, and LNCaP cells, lung cancer NCI-H460 and NCI-H522 cells, breast cancer MDA-MB-231 cells, AML MV-4-11 cells, and chronic myeloid leukemia (CML) K-562, MEG-01, and KU812 cells from American Type Culture Collection (Manassas, VA, United States); stomach cancer MKN45 cells from the Health Science Research Resources Bank (Osaka, Japan); pancreatic cancer AsPC-1 and MIA PaCa-2, and lung cancer A549 cells from DS Pharma Biomedical (Osaka, Japan). All cell lines were cultured in RPMI1640 medium (Life Technologies; Thermo Fisher Scientific Inc.) with 10% (v/v) fetal bovine serum (FBS; Sigma-Aldrich; Merck KgaA) at 37°C in 5% CO2.
Cells were seeded in 96-well plates and test compounds were added to the cultures at several concentrations.

- IC50 (FLT3): 0.39 µM
Compound: CN1CCN(c2ccc(-c3cnc4ccc(/C=C5\SC(=O)NC5=O)nn34)cc2)CC1 [YPC-21440, (Z)-5-([3-{4-(4-methylpiperazin-1-yl)phenyl}imidazo[1,2-b]pyridazin-6-yl]methylene)thiazolidine-2,4-dione]
- IC50 (cancer cell lines): 0.027 to 1 µM
